Here are results for one compound from patent US8710064B2, “2-aryl-4-quinazolinones and their pharmaceutical compositions” (China Medical University, priority 2011, dated 2014).

Assay [1] deals with U87 glioma cells. Briefly: trypan blue exclusion cell death assay, U87 glioma cells. The format is cell-based, human. Particulars: 60 nM, at the 48th hour, p<0.05 versus control. On the procedure: Cell viability was also determined by trypan-blue exclusion assay. Cells were seeded in 6-well plates (2×10^4/well) for trypan blue exclusion assay, and incubated for 24 hours at 37° C. Culture medium containing test compound or DMSO (0.006%) was added to each well, and cells were incubated at 37° C. At indicated time points (0, 24, 48, 72 and 96 hr), cells were suspended with 0.05% trypsin-EDTA, and stained with trypan-blue dye (0.4%) (Sigma). The cell viability was evaluated by the percentage of death relative to the total cell, and cell growth curve was determined by number of live cells relative to the total number of cells.
To investigate the glioma cell death induced by MJ-66, cell viability was assessed by trypan blue exclusion assay. C6 and U87 glioma cells treated with MJ-66 (30, 60, 90 nM) or DMSO (0.009%) for 0, 24, 48, 72 and 96 hours (hr) were observed under bright field microscope (FIG. 4A). The percentages of cell death and cell growth curve were determined by trypan blue assay followed by cell counting (mean±SEM, n=3). Relative to total cell number, trypan blue positive cells were defined as dead cells.

The subject of assay [2] is U87 glioma cells. Kind of assay: immunofluorescent staining, confocal microscopy. Particulars: 60 nM, 24 hours. It counts as cell-based, human. On the procedure: 2×10^4 cells were seeded on the PDL-coating 12 mm-glass coverslips in 24-well plate and allowed to attach for 24 hours at 37° C. Culture medium containing MJ-66 (IC50) or DMSO (0.006%) was added, and cells were incubated at 37° C. At indicated time points (0, 12 and 24 hr), cells were fixed in 4% paraformaldehyde (PFA) in PBS for 30 minutes. After permeabilized by 0.2% Triton X-100 in 0.1 M PBS for 10 minutes and 10% methanol containing 0.2% Triton X-100 in 0.1 M PBS for 5 minutes, cells were blocked in 3% bovine serum albumin (BSA, Sigma) for 1 hour. The cells were immunostained for mitotic spindle with mouse monoclonal alpha-tubulin (Sigma-Aldrich), and mitotic center with rabbit polyclonal gamma-tubulin (Genetex), and then stained with appropriated secondary antibodies conjugated with Texas Red or FITC for 1 hr. […] Fluorescence images were detected by confocal laser scanning microscope (FV1000, Olympus).
To observe the morphology of MJ-66-treated glioma cells, C6 or U87 glioma cells were treated with medium or 60 nM MJ-66 for 24 hours and stained with Hoechst 33342 and antibodies against alpha-tubulin conjugated with FITC or antibodies against gamma-tubulin conjugated with FITC in combination with antibodies against alpha-tubulin conjugated with Texas Red were detected by confocal laser scanning microscope. […]

Assay [3] deals with U87 human glioma xenograft. Kind of assay: in vivo xenograft animal model. To be noted: 1.36 microgram/kg intra-tumor every 2 days for 10 times, after 40 days. Set-up: species or system nude mice. Here is the method:
For tumorigenesis, U87 glioma cells (1×10^6 cells per 100 μl PBS) were inoculated subcutaneously into the right flank of 8-to-10-week-old male nude mice (BALB/cAnN-Foxnlnu/CrlNarl mice, National Laboratory Animal Center, Taiwan). Tumor growth was measured every three days. Tumor volume was calculated by volume (mm^3)=[…] (Zhou, Y. H., Wu, X., Tan, F., Shi, Y. X., Glass, T., Liu, T. J., Wathen, K., Hess, K. R., Gumin, J, Lang, F., et al. (2005). PAX6 suppresses growth of human glioblastoma cells. J Neurooncol 71, 223-229). When the tumors reached a mean volume of 50 to 70 mm^3, MJ-66 (1.36 microgram/kg in saline) or vehicle (DMSO or saline) was injected intratumor once per two days during 20 days.
Since MJ-66 was able to effectively cause glioma to undergo mitotic catastrophe in vitro, whether MJ-66 could inhibit tumor growth in vivo was further examined by U87 human glioma xenograft animal model. Approximately 1×10^6 U87 glioma cells were injected subcutaneously into the nude mice and when tumors size reached 50 to 200 mm^3 in volume, MJ-66 (1.36 microgram/kg in saline) or vehicle (DMSO or saline denoted respectively as DMSO and Control) was administered by intra-tumor every 2 days for 10 times and tumor volume was measured for 50 days. Tumor growth was observed every three days.

Regarding `O=c1[nH]c(-c2cccc3ccccc23)nc2ccc(N3CCCC3)cc12` [Compound 23, 6-(Pyrrolidin-1-yl)-2-(naphthalen-1-yl)quinazolin-4-one], the “percentage of dead cells, U87” value in the assay with U87 glioma cells [1] was “significantly induced”. The “nuclear morphology of U87 glioma cells” value in the assay with U87 glioma cells [2] was “abnormal nuclear phenotype”. Besides, the tumor growth result in assay [3] is given as “significantly inhibited”. The same compound came in with a tumor volume in assay [3] (N=8, p<0.01) of 435.1 mm^3.
